These results are taken from article PMC8566422, “Thermodynamics of semi-specific ligand recognition: the binding of dipeptides to the E.coli dipeptide binding protein DppA” (European Biophysics Journal, 2021).

Where a SMILES comes first, the peptide text is derived from it.

The test concerns the target T1, DppA (E. coli dipeptide binding protein) (Escherichia coli, UniProt P23847).
T1 sequence (P23847 29-535): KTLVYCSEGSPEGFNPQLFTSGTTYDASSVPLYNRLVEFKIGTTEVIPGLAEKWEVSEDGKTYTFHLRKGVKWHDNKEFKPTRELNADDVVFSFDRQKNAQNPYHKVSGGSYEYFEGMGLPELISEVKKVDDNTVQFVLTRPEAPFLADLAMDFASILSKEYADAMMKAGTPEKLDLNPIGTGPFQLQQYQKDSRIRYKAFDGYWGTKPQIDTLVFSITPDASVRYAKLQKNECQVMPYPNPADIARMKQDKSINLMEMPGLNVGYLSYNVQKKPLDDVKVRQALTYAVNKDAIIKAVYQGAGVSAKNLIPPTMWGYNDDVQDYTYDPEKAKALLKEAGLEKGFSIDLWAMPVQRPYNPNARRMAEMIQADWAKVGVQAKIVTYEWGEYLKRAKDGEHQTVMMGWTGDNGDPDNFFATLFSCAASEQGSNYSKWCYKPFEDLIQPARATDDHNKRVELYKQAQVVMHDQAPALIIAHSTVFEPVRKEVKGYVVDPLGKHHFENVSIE
Nature of the test: isothermal titration calorimetry. The text has this:
isothermal titration calorimetry on DppA (E. coli dipeptide binding protein)
For orientation: In ITC the heat of successive injections is recorded.

In general, Kd refers to the equilibrium constant for the complex coming apart. On to `C[C@H](N)C(=O)N[C@@H](Cc1ccccc1)C(=O)O` [AF, Alanine–Phenylalanine (A–F)], for which binding was characterised by a dissociation constant (Kd) of 357 nM.
In the case of `C[C@H](N)C(=O)N[C@@H](C)C(=O)O` [AA, Alanine–Alanine (A–A)] (H-Ala-Ala-OH), binding was put at a Kd of 37 nM.
